Tested on: Akt
Assay: Akt phosphorylation in rat hippocampus glia mixed culturing system (immunoprecipitation, Western blotting)
Format: cell-based
Conditions: rat hippocampus mixed culture; added at 300 nM or 100 nM; after one day and three days
Description: The hippocampus was removed from a 3 day-old rat and the cells were dispersed in a nerve dispersing solution. After the number of the cells was counted, the cells were suspended in a DMEM/F-12 medium containing 10% FCS (Embryo Max) and was then seeded on a 6-well plate coated with type I collagen at a density of 3×10^5 cells/cm^2. After cultured for 4 days, the medium was replaced with a N2 supplement-containing medium. Compound (I) (Compound 17a was used; hereinafter referred to Compound A) was added to a well at 300 nM or 100 nM, and IGF-1 was added to a well at 100 ng/mL. One day or three days after the addition, the cells were collected using Lysis Buffer containing protease inhibitor cocktail. Each cell suspension was centrifuged at 20000 rpm for 30 minutes and the supernatant was collected. An anti-5G3 Akt antibody was added to the supernatant to immunoprecipitate intracellular Akt. The resulting precipitate was subjected to SDS-PAGE using a 5-20% polyacrylamide gel and then to Western blotting. An anti-Phospho Akt antibody as a primary antibody and an HRP-linked anti-Rabbit antibody as a secondary antibody were used to detect the bands of phosphorylated Akt (Ser473 and Thr308). In order to detect the total Akt, the PVDF membrane was immersed in a reprobe buffer and permeated at 55° C. for 20 minutes to peel the antibodies. […]

Q: With `COc1cc2c(cc1OC)CN(c1c(C)c(C)c3c(c1C)[C@@H](c1ccc(C)cc1)C(C)(C)O3)C2` [Compound A] as the compound, how does the “phosphorylation of Akt at Ser473” value read?
A: promoted phosphorylation

Q: What about the “phosphorylation of Akt at Thr308” value of the same compound?
A: promoted phosphorylation

Source: patent publication US20060241168A1, “Antidepressant” (priority 2002, published 2006)
